Laboratory results as given in US8415469B2, “Compounds and methods for kinase modulation, and indications therefor” (Plexxikon Inc., priority 2005, dated 2013).

Columns and labels:
Format in all cases: biochemical
[1] = molecular target: T1, Stk6 (Homo sapiens, UniProt O14965); assay: Z'-Lyte FRET kinase assay (Invitrogen), Stk6; conditions: read-out: IC50, activity toward kinase Stk6
T1 construct: purchased Invitrogen (Carlsbad, Calif.), screening service
T1 sequence (O14965 1-403): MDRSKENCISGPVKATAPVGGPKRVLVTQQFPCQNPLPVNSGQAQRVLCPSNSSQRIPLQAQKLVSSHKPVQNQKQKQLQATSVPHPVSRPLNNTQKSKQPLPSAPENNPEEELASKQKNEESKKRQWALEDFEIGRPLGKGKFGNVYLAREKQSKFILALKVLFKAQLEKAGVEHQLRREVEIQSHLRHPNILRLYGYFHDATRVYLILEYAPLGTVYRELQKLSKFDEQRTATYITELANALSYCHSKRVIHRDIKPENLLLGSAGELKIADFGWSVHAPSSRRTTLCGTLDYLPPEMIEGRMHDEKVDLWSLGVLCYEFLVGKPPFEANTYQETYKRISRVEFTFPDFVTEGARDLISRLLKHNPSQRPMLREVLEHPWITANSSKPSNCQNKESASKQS
Source text: For example, direct radiometric, indirect FRET or AlphaScreen assays may be used to assess the level of phosphorylation of a substrate in the presence of test compounds in order to determine the inhibitory affect of the compound on the kinase. […] For these assays, compounds of the invention were screened by Invitrogen using Z′-Lyte™ kinase assay.
Briefly, the Invitrogen kinase assay involves use of a specific peptide substrate optimized for each kinase, containing a fluorophore at each end that make up the FRET pair. The peptide sensitivity to proteolytic cleavage depends on phosphorylation of the peptide. Non-phosphorylated peptide is cleaved by a protease while peptide phosphorylated by the kinase is not cleaved. Cleavage of the peptide disrupts the FRET between the donor (coumarin) and acceptor (fluorescein) fluorophores, resulting in an increase in the ratio of donor emission to acceptor emission. The emission ratio of coumarin to fluorescein is used to assess the reaction progress. […] Thus, the assay involves a kinase reaction in the presence of varying concentrations of a given compound, a development reaction with site specific protease, and detection of the fluorescent emission ratio of coumarin and fluorscein. […] Reaction conditions for each kinase are determined to provide optimal reaction times, incubation temperature, kinase and ATP concentrations. Test samples are made up in 1× kinase buffer (50 mM HEPES pH 7.5, 50 mM MgCl2, 5 mM EGTA, 0.05% BRIJ-35) and compound at desired concentration prepared in DMSO such that the final DMSO is 1%. […] All kinase except for MAP2K1 were at 10 μM ATP in the kinase reaction, while MAP2K1 was at 100 μM. Samples are mixed and the kinase reaction is incubated 1 hour at room temperature, after which 5 μl of development solution is added and mixed. After incubation for another 1 hour at room temperature, 5 μl of stop reagent is added to each sample and mixed. The fluorescence signals are measured to determine the emission ratio.

[2] = molecular target: T2, Itk (Homo sapiens, UniProt Q08881); assay: AlphaScreen kinase assay, Itk; conditions: read-out: IC50, activity toward kinase Itk
T2 sequence (Q08881 1-620): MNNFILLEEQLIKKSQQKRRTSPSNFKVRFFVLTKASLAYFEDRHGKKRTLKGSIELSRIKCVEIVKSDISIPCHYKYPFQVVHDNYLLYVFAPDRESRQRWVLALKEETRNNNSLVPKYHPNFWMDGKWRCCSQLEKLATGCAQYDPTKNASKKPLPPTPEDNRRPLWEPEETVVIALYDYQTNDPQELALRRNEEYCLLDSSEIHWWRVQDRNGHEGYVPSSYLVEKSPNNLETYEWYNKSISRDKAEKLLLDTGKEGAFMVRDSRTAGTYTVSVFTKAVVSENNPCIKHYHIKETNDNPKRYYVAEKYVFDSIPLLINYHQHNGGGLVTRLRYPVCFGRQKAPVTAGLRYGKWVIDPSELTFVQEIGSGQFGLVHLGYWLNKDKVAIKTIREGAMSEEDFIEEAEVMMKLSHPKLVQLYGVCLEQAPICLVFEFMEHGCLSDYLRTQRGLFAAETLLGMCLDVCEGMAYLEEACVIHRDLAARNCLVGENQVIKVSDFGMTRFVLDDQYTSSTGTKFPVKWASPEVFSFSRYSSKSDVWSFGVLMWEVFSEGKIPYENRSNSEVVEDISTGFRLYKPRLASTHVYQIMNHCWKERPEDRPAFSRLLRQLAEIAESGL
Source text: AlphaScreen assay was used to screen additional kinases. The assay is similarly dependent on the phosphorylation of a peptide substrate. In this assay, an antibody that recognizes phosphorylated substrate is bound to an acceptor bead. The peptide substrate is attached to biotin, which binds to a donor head that contains streptavidin. Thus phosphorylated substrate is bound by antibody and streptavidin, bringing the donor and acceptor heads into close proximity when kinase is not inhibited. The donor produces singlet oxygen which results in emission from the acceptor when they are in close proximity. Conversely, when kinase is inhibited, the donor and acceptor beads are not associated and the emission from the acceptor is reduced.
AlphaScreen assays were done using compounds dissolved in DMSO to a concentration of 20 mM. The compounds were diluted accordingly to the desired final concentrations in each sample well, using 1:3 serial dilution for a total of 8 concentration points.

[3] = molecular target: T3, Kdr (Homo sapiens, UniProt P35968); assay: Z'-Lyte FRET kinase assay (Invitrogen), Kdr; conditions: read-out: IC50, activity toward kinase Kdr
T3 construct: purchased Invitrogen (assay run by Invitrogen)

[4] = molecular target: T4, Jnk3 (Homo sapiens, UniProt P53779); assay: AlphaScreen kinase assay, Jnk3; conditions: read-out: IC50, activity toward kinase Jnk3
T4 construct: purchased Upstate Biotechnology

[5] = molecular target: Akt3 (Homo sapiens, UniProt Q9Y243); assay: AlphaScreen kinase assay, Akt3; conditions: read-out: IC50, activity toward kinase Akt3
Summary of the method: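 Inhibition reads as diminished acceptor emission, since unphosphorylated peptide fails to bridge antibody acceptor beads and streptavidin donor beads. Titration: eight points, 1:3 steps, stocks at 20 mM in DMSO.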

[6] = molecular target: T5, B-Raf V600E (Homo sapiens, UniProt P15056, V600E); assay: AlphaScreen kinase assay, B-Raf V600E; conditions: read-out: IC50, activity toward kinase B-Raf V600E
T5 construct: P4254. pFastBacBD-CDC37 BRAF D437-K722-X, V600E; His6 with pFastBac HT leader (TEV site) (N); made in house; host or cells: Sf9 (baculovirus; chaperone CDC37 co-expressed)

[7] = molecular target: T6, Kit (Homo sapiens, UniProt P10721); assay: AlphaScreen kinase assay, Kit; conditions: read-out: IC50, activity toward kinase Kit
T6 construct: P1332.N6 BI PTP KIT M552-K948-X COD; His6 (N); made in house; host or cells: E. coli (PTP1B co-expressed)
Procedure: (§1) AlphaScreen assays were done using compounds dissolved in DMSO to a concentration of 20 mM. The compounds were diluted accordingly to the desired final concentrations in each sample well, using 1:3 serial dilution for a total of 8 concentration points. Plates were prepared such that each kinase reaction is 20 μl in 1× kinase buffer, 5% DMSO and 10 μM ATP. After incubation of the kinase reaction for 1 hour at room temperature, 5 μl of donor beads in stop buffer (50 mM EDTA in 1× kinase buffer) was added, the sample was mixed and incubated for 20 minutes at room temperature before adding 5 μl of acceptor beads in stop buffer. The samples were incubated for 60 minutes at room temperature and the signal per well was read on AlphaQuest reader.

[8] = molecular target: T7, IKK beta (Homo sapiens, UniProt O14920); assay: AlphaScreen kinase assay, IKK beta; conditions: read-out: IC50, activity toward kinase IKK beta
T7 sequence (O14920 1-756): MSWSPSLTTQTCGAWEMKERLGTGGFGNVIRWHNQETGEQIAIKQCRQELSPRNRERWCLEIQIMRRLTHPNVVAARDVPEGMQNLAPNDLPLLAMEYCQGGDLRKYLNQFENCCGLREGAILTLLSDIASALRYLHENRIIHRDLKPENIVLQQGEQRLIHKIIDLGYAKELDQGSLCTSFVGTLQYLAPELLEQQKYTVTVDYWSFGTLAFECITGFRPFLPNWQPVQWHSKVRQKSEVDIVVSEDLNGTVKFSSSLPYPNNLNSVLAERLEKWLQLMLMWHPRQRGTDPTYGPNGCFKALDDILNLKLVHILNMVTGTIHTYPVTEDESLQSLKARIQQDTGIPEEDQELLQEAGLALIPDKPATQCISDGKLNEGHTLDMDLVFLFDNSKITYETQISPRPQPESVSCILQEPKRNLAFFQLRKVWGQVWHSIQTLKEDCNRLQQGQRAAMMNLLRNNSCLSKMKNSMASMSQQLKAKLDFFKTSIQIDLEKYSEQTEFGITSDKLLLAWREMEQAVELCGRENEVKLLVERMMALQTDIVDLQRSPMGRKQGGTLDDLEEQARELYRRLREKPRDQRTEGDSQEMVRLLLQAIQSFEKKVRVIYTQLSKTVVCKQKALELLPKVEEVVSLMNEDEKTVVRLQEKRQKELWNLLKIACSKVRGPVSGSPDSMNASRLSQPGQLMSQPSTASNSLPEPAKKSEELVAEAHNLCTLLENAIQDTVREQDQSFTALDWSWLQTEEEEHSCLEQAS
Procedure: as §1

[9] = molecular target: T8, PKC theta (Homo sapiens, UniProt Q04759); assay: Z'-Lyte FRET kinase assay (Invitrogen), PKC theta; conditions: read-out: IC50, activity toward kinase PKC theta
T8 construct: purchased Invitrogen (Carlsbad, Calif.), screening service
Source text: The effect of potential modulators of kinase activity can be measured in a variety of different assays known in the art. For example, direct radiometric, indirect FRET or AlphaScreen assays may be used to assess the level of phosphorylation of a substrate in the presence of test compounds in order to determine the inhibitory affect of the compound on the kinase. Invitrogen (Carlsbad, Calif.) uses a FRET based assay for Btk, EGFR, EphB2, Flt3, lrak4, Kdr, MAP2K1, MAPKAPK2, PDGFRB, PKC theta, Stk6 and Yes. For these assays, compounds of the invention were screened by Invitrogen using Z′-Lyte™ kinase assay.
Briefly, the Invitrogen kinase assay involves use of a specific peptide substrate optimized for each kinase, containing a fluorophore at each end that make up the FRET pair. The peptide sensitivity to proteolytic cleavage depends on phosphorylation of the peptide. Non-phosphorylated peptide is cleaved by a protease while peptide phosphorylated by the kinase is not cleaved. Cleavage of the peptide disrupts the FRET between the donor (coumarin) and acceptor (fluorescein) fluorophores, resulting in an increase in the ratio of donor emission to acceptor emission. The emission ratio of coumarin to fluorescein is used to assess the reaction progress. The extent of phosphorylation is determined from the emission ratio, which is low when the kinase is active (phosphorylated peptide is not cleaved, FRET pair connected) or higher for inhibited kinase (non-phosphorylated peptide is cleaved, FRET pair separated). Thus, the assay involves a kinase reaction in the presence of varying concentrations of a given compound, a development reaction with site specific protease, and detection of the fluorescent emission ratio of coumarin and fluorscein. […] Reaction conditions for each kinase are determined to provide optimal reaction times, incubation temperature, kinase and ATP concentrations. Test samples are made up in 1× kinase buffer (50 mM HEPES pH 7.5, 50 mM MgCl2, 5 mM EGTA, 0.05% BRIJ-35) and compound at desired concentration prepared in DMSO such that the final DMSO is 1%. […] Typically, assay plates are prepared to 10 μl final volume per sample, adding 2.5 μl of compound at 4× the desired concentration in 4% DMSO (serial dilution of compound provides concentration curve), 5 μl of the desired kinase mixed with Z′-LYTE™ peptide substrate (2× in 2× kinase buffer, final peptide at 2 μM), and 2.5 μl of 4×ATP solution. All kinase except for MAP2K1 were at 10 μM ATP in the kinase reaction, while MAP2K1 was at 100 μM. Samples are mixed and the kinase reaction is incubated 1 hour at room temperature, after which 5 μl of development solution is added and mixed. After incubation for another 1 hour at room temperature, 5 μl of stop reagent is added to each sample and mixed. The fluorescence signals are measured to determine the emission ratio.

[10] = molecular target: T9, Pyk2 (Homo sapiens, UniProt Q14289); assay: AlphaScreen kinase assay, Pyk2; conditions: read-out: IC50, activity toward kinase Pyk2
T9 construct: purchased Upstate Biotechnology

[11] = molecular target: T10, B-Raf (Homo sapiens, UniProt P15056); assay: AlphaScreen kinase assay, B-Raf; conditions: read-out: IC50, activity toward kinase B-Raf
T10 construct: purchased Upstate Biotechnology

[12] = molecular target: T11, Fms (Homo sapiens, UniProt P07333); assay: AlphaScreen kinase assay, Fms; conditions: read-out: IC50, activity toward kinase Fms
T11 construct: purchased Upstate Biotechnology

[13] = molecular target: T12, c-Raf-1 (Homo sapiens, UniProt P04049); assay: AlphaScreen kinase assay, c-Raf-1; conditions: read-out: IC50, activity toward kinase c-Raf-1
T12 construct: purchased Upstate Biotechnology

[14] = molecular target: T13, Jnk1 (Homo sapiens, UniProt P45983); assay: AlphaScreen kinase assay, Jnk1; conditions: read-out: IC50, activity toward kinase Jnk1
T13 construct: purchased Upstate Biotechnology

[15] = molecular target: T14, Src (Homo sapiens, UniProt P12931); assay: AlphaScreen kinase assay, Src; conditions: read-out: IC50, activity toward kinase Src
T14 construct: P1144. pET-N6 BI-PTP SRC V86-L536-X; made in house

[16] = molecular target: T15, FGFR1 (Homo sapiens, UniProt P11362, C488A/C584S); assay: AlphaScreen kinase assay, FGFR1; conditions: read-out: IC50, activity toward kinase FGFR
T15 construct: P1351.pET N6 BI-PTP FGFR A458-E765-X C488A, C584S; made in house; host or cells: E. coli (PTP1B co-expressed)

[17] = molecular target: T16, Fak (Homo sapiens, UniProt Q05397); assay: AlphaScreen kinase assay, Fak; conditions: read-out: IC50, activity toward kinase Fak
T16 construct: P1358.pFastBacHtb FAK S411-Q686-X; His6 with pFastBacHTb leader (TEV site) (N); made in house; host or cells: Sf9 (baculovirus)

Measured: IC50

Akt3, sequence (Q9Y243 whole entry): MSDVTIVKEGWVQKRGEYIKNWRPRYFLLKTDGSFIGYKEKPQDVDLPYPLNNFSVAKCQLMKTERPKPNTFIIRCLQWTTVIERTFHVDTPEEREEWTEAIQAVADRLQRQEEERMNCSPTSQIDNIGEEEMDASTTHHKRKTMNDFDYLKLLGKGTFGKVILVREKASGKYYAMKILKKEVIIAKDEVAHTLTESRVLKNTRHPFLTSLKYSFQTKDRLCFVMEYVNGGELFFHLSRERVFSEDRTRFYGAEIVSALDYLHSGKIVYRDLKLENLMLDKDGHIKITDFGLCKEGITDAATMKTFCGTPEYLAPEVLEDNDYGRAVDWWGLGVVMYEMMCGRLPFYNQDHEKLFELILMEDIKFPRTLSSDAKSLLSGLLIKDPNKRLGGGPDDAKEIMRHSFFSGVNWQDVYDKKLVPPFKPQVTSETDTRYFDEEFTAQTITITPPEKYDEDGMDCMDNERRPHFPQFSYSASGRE
T5 sequence (P15056 with tags, fused parts or gaps V600E): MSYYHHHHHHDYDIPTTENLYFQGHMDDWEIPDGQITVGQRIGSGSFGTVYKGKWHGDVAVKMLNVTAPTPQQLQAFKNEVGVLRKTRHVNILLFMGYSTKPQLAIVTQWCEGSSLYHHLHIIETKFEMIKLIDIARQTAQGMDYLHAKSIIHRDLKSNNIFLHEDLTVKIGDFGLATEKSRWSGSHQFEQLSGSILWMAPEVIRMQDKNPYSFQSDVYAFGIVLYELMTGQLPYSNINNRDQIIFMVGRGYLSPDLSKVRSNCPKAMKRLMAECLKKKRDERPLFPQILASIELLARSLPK
T10 sequence (P15056 whole entry): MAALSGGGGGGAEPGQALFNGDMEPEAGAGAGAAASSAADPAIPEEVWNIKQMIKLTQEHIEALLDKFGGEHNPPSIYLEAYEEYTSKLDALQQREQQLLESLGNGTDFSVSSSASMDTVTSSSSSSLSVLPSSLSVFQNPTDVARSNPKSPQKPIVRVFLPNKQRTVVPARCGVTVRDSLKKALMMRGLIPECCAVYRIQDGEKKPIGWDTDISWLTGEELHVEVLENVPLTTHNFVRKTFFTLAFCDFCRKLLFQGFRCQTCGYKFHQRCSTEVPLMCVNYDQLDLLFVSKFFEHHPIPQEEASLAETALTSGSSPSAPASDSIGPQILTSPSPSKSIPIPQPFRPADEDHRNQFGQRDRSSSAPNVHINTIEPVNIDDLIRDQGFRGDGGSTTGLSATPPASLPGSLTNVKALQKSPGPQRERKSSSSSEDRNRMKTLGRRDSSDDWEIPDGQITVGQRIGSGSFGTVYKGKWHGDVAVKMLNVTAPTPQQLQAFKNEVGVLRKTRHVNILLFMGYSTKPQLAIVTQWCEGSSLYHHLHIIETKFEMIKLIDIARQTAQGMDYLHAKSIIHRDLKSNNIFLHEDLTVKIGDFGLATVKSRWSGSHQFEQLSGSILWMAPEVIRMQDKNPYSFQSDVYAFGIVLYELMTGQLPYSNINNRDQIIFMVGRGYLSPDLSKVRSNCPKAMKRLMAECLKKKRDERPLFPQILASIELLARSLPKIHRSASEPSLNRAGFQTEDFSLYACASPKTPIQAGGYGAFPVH
T4 sequence (P53779 whole entry): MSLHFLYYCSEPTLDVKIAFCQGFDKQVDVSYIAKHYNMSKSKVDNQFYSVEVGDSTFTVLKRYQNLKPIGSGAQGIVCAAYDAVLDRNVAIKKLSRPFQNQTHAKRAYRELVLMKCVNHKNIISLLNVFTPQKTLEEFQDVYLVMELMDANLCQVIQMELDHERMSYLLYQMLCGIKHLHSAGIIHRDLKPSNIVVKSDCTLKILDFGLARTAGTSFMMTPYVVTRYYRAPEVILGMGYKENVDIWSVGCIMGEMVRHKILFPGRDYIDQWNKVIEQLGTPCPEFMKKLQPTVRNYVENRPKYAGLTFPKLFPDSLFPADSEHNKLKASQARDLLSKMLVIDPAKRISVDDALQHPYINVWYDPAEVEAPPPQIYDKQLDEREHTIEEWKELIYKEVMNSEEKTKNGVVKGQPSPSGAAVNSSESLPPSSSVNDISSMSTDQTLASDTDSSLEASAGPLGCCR
T11 sequence (P07333 20-972): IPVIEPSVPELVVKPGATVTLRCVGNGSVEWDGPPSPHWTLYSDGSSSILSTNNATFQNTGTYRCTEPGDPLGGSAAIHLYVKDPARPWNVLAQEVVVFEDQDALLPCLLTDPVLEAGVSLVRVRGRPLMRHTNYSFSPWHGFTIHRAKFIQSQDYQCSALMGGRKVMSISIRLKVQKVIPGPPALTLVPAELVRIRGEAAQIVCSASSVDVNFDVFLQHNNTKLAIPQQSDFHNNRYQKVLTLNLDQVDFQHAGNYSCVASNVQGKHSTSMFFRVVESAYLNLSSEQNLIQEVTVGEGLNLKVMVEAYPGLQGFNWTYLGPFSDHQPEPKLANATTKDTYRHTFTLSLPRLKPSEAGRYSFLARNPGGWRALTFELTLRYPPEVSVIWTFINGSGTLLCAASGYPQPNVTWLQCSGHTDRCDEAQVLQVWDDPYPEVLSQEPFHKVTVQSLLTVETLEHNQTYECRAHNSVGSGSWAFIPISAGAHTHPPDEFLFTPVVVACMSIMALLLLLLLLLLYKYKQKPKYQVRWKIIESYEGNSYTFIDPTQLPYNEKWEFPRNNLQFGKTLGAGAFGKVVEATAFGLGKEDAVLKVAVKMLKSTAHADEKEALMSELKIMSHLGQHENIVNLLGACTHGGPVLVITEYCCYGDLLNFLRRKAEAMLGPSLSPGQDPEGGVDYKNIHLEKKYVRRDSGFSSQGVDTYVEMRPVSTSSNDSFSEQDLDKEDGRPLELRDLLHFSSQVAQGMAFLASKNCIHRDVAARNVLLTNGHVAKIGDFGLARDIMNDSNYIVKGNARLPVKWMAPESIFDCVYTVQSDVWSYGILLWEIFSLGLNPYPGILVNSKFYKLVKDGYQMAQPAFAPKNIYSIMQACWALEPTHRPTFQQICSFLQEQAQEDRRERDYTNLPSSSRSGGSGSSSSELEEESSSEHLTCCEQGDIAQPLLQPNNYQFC
T3 sequence (P35968 20-1356): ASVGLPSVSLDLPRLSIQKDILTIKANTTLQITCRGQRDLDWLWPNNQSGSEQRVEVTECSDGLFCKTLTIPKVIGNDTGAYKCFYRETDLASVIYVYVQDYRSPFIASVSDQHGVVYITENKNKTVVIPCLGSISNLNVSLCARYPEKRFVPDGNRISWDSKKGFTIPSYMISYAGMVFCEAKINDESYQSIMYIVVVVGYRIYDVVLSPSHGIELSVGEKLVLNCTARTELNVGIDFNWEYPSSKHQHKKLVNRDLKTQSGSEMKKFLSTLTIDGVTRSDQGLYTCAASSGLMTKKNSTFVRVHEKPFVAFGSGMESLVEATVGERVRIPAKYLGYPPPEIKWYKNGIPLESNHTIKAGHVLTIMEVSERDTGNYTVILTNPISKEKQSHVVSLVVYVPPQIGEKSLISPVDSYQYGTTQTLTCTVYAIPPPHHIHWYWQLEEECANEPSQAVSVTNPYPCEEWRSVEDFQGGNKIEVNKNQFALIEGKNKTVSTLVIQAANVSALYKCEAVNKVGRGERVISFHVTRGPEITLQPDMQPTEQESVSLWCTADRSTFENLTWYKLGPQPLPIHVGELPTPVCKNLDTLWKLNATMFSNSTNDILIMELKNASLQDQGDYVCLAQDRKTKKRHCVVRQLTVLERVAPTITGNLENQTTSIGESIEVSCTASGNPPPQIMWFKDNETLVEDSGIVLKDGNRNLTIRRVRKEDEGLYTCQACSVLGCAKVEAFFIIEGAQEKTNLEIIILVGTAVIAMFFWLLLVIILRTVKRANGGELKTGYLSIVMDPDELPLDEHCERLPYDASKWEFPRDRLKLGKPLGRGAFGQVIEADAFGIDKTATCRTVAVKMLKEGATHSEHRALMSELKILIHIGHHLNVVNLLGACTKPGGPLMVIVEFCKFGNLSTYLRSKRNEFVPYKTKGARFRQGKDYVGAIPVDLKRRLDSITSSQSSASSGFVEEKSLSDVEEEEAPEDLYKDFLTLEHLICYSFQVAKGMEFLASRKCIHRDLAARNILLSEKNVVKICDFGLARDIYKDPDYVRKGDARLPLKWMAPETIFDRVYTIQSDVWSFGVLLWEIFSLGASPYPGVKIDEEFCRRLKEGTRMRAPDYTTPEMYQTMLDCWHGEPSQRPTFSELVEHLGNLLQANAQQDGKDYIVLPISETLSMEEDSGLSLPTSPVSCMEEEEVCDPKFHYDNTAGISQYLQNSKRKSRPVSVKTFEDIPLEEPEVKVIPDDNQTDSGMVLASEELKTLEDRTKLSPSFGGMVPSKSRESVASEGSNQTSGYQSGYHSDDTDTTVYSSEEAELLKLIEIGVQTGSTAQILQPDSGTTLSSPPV
T6 sequence (P10721 with tags, fused parts or gaps): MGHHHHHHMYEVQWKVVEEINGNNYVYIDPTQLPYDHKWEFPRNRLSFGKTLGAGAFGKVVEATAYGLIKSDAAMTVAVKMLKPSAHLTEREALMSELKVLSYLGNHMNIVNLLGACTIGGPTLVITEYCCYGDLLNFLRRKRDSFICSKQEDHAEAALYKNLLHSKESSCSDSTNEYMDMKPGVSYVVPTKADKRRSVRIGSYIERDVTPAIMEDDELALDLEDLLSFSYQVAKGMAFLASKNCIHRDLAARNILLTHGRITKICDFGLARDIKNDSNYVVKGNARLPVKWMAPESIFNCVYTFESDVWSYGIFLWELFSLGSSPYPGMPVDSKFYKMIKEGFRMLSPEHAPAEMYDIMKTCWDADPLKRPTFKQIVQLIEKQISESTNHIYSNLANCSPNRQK
T16 sequence (Q05397 411-686): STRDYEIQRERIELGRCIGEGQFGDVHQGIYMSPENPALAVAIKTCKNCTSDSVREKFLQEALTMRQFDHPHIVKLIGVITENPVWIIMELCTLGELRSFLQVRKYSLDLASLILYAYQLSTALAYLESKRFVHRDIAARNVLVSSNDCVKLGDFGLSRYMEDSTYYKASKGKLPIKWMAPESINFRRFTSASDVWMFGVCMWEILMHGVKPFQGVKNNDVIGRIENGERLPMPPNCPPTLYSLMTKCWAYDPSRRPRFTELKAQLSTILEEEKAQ

CS(=O)(=O)c1cccc(-c2cnc3[nH]ccc3c2)c1 [Compound P-0173, 5-(3-Methanesulfonyl-phenyl)-1H-pyrrolo[2,3-b]pyridine]
≤ 10 µM: [1] | [2] | [3]

c1cc2cc(Nc3ccc(N4CCCCC4)cc3)cnc2[nH]1 [Compound P-1016]
≤ 10 µM: [4] | [2] | [5] | [6] | [7]

c1cc(-c2ccc(N3CCNCC3)nc2)c2cc[nH]c2n1 [Compound P-0270]
≤ 10 µM: [8] | [5] | [9] | [3]

c1cc(Nc2ccc(N3CCCCC3)cc2)c2cc[nH]c2n1 [Compound P-0883]
≤ 10 µM: [10] | [11] | [2] | [5] | [12] | [13]

Brc1ccc(Nc2cnc3[nH]ccc3c2)cc1 [Compound P-1067]
≤ 10 µM: [2] | [6]

NC(=O)c1cccc(-c2cnc3[nH]cc(Cc4ccccc4O)c3c2)c1 [Compound P-1385]
not listed: [1] | [3] | [5] | [8] | [9] | [10] | [13]
≤ 10 µM: all other assays above
